In PMC10046961, “High-Throughput Screening Assay for Detecting Drug-Induced Changes in Synchronized Neuronal Oscillations and Potential Seizure Risk Based on Ca^2+ Fluorescence Measurements in Human Induced Pluripotent Stem Cell (hiPSC)-Derived Neuronal 2D and 3D Cultures” (Cells, 2023):
Like-named read-outs stand apart in the source and are kept apart here.

Assays:
[1] = tested on: hiPSC-derived neurons co-cultured with human primary astrocytes in 3D; assay: Ca2+ transient oscillation assay (FDSS), 3D spheroids; type: cell-based; conditions: for Area under the curve - 3D Mean / Peak Number—3D Mean / Peak amplitude - 3D Mean / Peak width - 3D Mean / Peak-to-peak interval - 3D Mean: 60 min
Summary of the method: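 Fura-2 fluorescence was read twice for 20 min each: a baseline 10 min after 0.04% DMSO, and again 60 min after compound addition at nominal final concentration. The 3D co-cultures (1:1 hiPSC neurons from a donor and human astrocytes, 8000 each) matured 5 weeks in BrainPhys medium after a 1-week differentiation.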

[2] = ref PharmaPendium, cited from earlier work
[3] = tested on: hiPSC-derived neurons co-cultured with human primary astrocytes in 2D; assay: Ca2+ transient oscillation assay (FDSS), 2D co-culture; type: cell-based; conditions: for effect on peak number / Ca2+ neuronal oscillations, in words: 2D format; for activation at 0.11 µM / activation at 0.33 µM / activation at 1 µM / activation at 3 µM / activation at 0.37 µM / activation at 1.11 µM / activation at 3.33 µM / activation at 10 µM: Homo sapiens, 1 h, 60 min
Summary of the method: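 hiPSC-derived excitatory neurons (CW50065, Quick-Neuron EX-SeV) co-cultured with human primary astrocytes at 4:1 (10,000:2500 cells per well). Cal-520-loaded cells in HBSS with 2 mM CaCl2 and 10 mM HEPES were pretreated with 0.04% DMSO.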

[4] = Table 1, peak plasma concentration in men, free therapeutic Cmax
[5] = Table 2, highest plasma concentration in humans after the therapeutic dose
[6] = read-out: Area under the curve - 2D Mean
[7] = read-out: Peak amplitude - 2D Mean
[8] = read-out: Peak-to-peak interval - 2D Mean

Clc1ccc2c(c1)C(N1CCNCC1)=Nc1ccccc1O2 [Amoxapine]
Area under the curve - 3D Mean ([1]; 0.11 µM): 122.7 % change from baseline | Peak Number—3D Mean ([1]; 0.11 µM): −10.1 % change from baseline | Peak amplitude - 3D Mean ([1]; 0.11 µM): 92.4 % change from baseline | Peak width - 3D Mean ([1]; 0.11 µM): 11.9 % change from baseline | Peak-to-peak interval - 3D Mean ([1]; 0.11 µM): 14.8 % change from baseline | Area under the curve - 3D Mean ([1]; 0.33 µM): 130.2 % change from baseline | Peak Number—3D Mean ([1]; 0.33 µM): −2.2 % change from baseline | Peak amplitude - 3D Mean ([1]; 0.33 µM): 101.9 % change from baseline | Peak width - 3D Mean ([1]; 0.33 µM): 12.5 % change from baseline | Peak-to-peak interval - 3D Mean ([1]; 0.33 µM): 7.1 % change from baseline | Area under the curve - 3D Mean ([1]; 1 µM): 124.0 % change from baseline | Peak Number—3D Mean ([1]; 1 µM): −10.8 % change from baseline | Peak amplitude - 3D Mean ([1]; 1 µM): 102.7 % change from baseline | Peak width - 3D Mean ([1]; 1 µM): 6.8 % change from baseline | Peak-to-peak interval - 3D Mean ([1]; 1 µM): 4.4 % change from baseline | Area under the curve - 3D Mean ([1]; 3 µM): 148.1 % change from baseline | Peak Number—3D Mean ([1]; 3 µM): −7.5 % change from baseline | Peak amplitude - 3D Mean ([1]; 3 µM): 105.1 % change from baseline | Peak width - 3D Mean ([1]; 3 µM): 21.0 % change from baseline | Peak-to-peak interval - 3D Mean ([1]; 3 µM): −6.6 % change from baseline | effect on peak number of oscillations, in words ([1]; 3D-cultured): did not significantly change the peak number | Free Cmax [2, 4]: 40 to 600 nM | Free Cmax [2, 5]: 40 to 600 nM | effect on peak number / Ca2+ neuronal oscillations, in words [3]: significantly reduced peak number | activation at 0.11 µM [3, 6]: 27.8% | activation at 0.11 µM ([3]; read-out: Peak Number—2D Mean): -5.2% | activation at 0.11 µM [3, 7]: 7.7% | activation at 0.11 µM ([3]; read-out: Peak width - 2D Mean): 22% | activation at 0.11 µM [3, 8]: 8.8% | activation at 0.33 µM [3, 6]: 25.3% | activation at 0.33 µM ([3]; read-out: Peak Number—2D Mean): 25.3% | activation at 0.33 µM [3, 7]: 12.7% | activation at 0.33 µM ([3]; read-out: Peak width - 2D Mean): 14.8% | activation at 0.33 µM [3, 8]: -7.8% | activation at 1 µM [3, 6]: 22.8% | activation at 1 µM ([3]; read-out: Peak Number—2D Mean): 12.5% | activation at 1 µM [3, 7]: -1.5% | activation at 1 µM ([3]; read-out: Peak width - 2D Mean): 31.7% | activation at 1 µM [3, 8]: -4.5% | activation at 3 µM [3, 6]: -40.8% | activation at 3 µM ([3]; read-out: Peak Number—2D Mean): -35.3% | activation at 3 µM [3, 7]: -20.7% | activation at 3 µM ([3]; read-out: Peak width - 2D Mean): -37.7% | activation at 3 µM [3, 8]: 56.7%

CC[C@@H]1C(=O)OC[C@@H]1Cc1cncn1C [Pilocarpine]
Area under the curve - 3D Mean ([1]; 0.37 µM): 141.5 % change from baseline | Peak Number—3D Mean ([1]; 0.37 µM): 16.7 % change from baseline | Peak amplitude - 3D Mean ([1]; 0.37 µM): 115.6 % change from baseline | Peak width - 3D Mean ([1]; 0.37 µM): 6.3 % change from baseline | Peak-to-peak interval - 3D Mean ([1]; 0.37 µM): −10.1 % change from baseline | Area under the curve - 3D Mean ([1]; 1.11 µM): 173.5 % change from baseline | Peak Number—3D Mean ([1]; 1.11 µM): 23.9 % change from baseline | Peak amplitude - 3D Mean ([1]; 1.11 µM): 145.8 % change from baseline | Peak width - 3D Mean ([1]; 1.11 µM): 6.7 % change from baseline | Peak-to-peak interval - 3D Mean ([1]; 1.11 µM): −10.0 % change from baseline | Area under the curve - 3D Mean ([1]; 3.33 µM): 168.7 % change from baseline | Peak Number—3D Mean ([1]; 3.33 µM): 12.9 % change from baseline | Peak amplitude - 3D Mean ([1]; 3.33 µM): 135.3 % change from baseline | Peak width - 3D Mean ([1]; 3.33 µM): 10.2 % change from baseline | Peak-to-peak interval - 3D Mean ([1]; 3.33 µM): −3.3 % change from baseline | Area under the curve - 3D Mean ([1]; 10 µM): 145.2 % change from baseline | Peak Number—3D Mean ([1]; 10 µM): 23.1 % change from baseline | Peak amplitude - 3D Mean ([1]; 10 µM): 122.5 % change from baseline | Peak width - 3D Mean ([1]; 10 µM): 7.0 % change from baseline | Peak-to-peak interval - 3D Mean ([1]; 10 µM): −12.6 % change from baseline | Free Cmax [2, 4]: 30 to 550 nM | Free Cmax [2, 5]: 30 to 550 nM | effect on peak number / Ca2+ neuronal oscillations, in words [3]: significantly increased peak number | activation at 0.37 µM [3, 6]: 26.7% | activation at 0.37 µM ([3]; read-out: Peak Number—2D Mean): 11.5% | activation at 0.37 µM [3, 7]: 9.3% | activation at 0.37 µM ([3]; read-out: Peak width - 2D Mean): 19.2% | activation at 0.37 µM [3, 8]: 1.3% | activation at 1.11 µM [3, 6]: 38.8% | activation at 1.11 µM ([3]; read-out: Peak Number—2D Mean): 8.3% | activation at 1.11 µM [3, 7]: 8% | activation at 1.11 µM ([3]; read-out: Peak width - 2D Mean): 35.7% | activation at 1.11 µM [3, 8]: 5.8% | activation at 3.33 µM [3, 6]: 26.7% | activation at 3.33 µM ([3]; read-out: Peak Number—2D Mean): 34.3% | activation at 3.33 µM [3, 7]: 5.8% | activation at 3.33 µM ([3]; read-out: Peak width - 2D Mean): 23.2% | activation at 3.33 µM [3, 8]: -9.2% | activation at 10 µM [3, 6]: 22.8% | activation at 10 µM ([3]; read-out: Peak Number—2D Mean): -19.2% | activation at 10 µM [3, 7]: 3.8% | activation at 10 µM ([3]; read-out: Peak width - 2D Mean): 23% | activation at 10 µM [3, 8]: 29.8%
